Test results as given in patent US8778882B2, “Agent for strengthening calcium containing tissue and use thereof” (Hayashibara Co., Ltd., priority 2002, dated 2014).

Tests used:
Format in all cases: cell-based
[1] = test system: mouse pre-osteoblastic cell MC3T3-E1; assay: Alkaline phosphatase activity in mouse pre-osteoblastic cells; details: for activity at 20 µM: Mus musculus
Protocol: To increase number of osteoblastic cells having calcium-deposition activity is important for increasing bone mass. […] The activity is at low level in pre-osteoblastic cells and at high level in osteoblastic cells differentiated form the pre-osteoblastic cells. […] Since final ethanol concentration in the medium is 0.2% (v/v), α-MEM medium containing 0.2% (v/v) ethanol was prepared as a negative control. The cells were inoculated for eight days as changing the medium therewith to fresh medium with or without each sample per three days. Alkaline phosphatase activity was measured using “Alkaline Phospha B-Test Wako” (commercialized by Wako Pure Chemical Industries, Osaka, Japan) according with Kajii et al (Archives of Oral Biology, Vol. 44, pp. 233-241, (1999)). Briefly, to the above described mouse pre-osteoblastic cells washed with 1 ml of 0.25 M sucrose solution three times after removing the medium were added 0.45 ml of 50 mM carbonate salt buffer (pH9.8) containing 1 mM magnesium chloride and 50 mM sucrose and 0.05 ml of 3.4 mM disodium p-nitrophenyl phosphate in due course. The mixture was incubated at 25° C. for five minutes and admixed with 1.5 ml of 0.6N sodium hydroxide as a reaction terminator. Absorbance 405 nm of p-nitrophenol generated by alkaline phosphatase in the resulting mixture was measured, and the obtained values were used as values as alkaline phosphatase activity. […] The experiment was performed by the method according to Experiment 1 except that culture day in the medium containing each sample was three, six or nine, and concentration of each sample was 5, 10 or 20 μM. […] As a negative control, mediums containing ethanol in the above concentration were prepared for calculating relative activity to the activity of each control.

[2] = test system: Mouse MC3T3-E1 cells; assay: Calcium deposition by alizarin red-S staining; set-up: key: +: same strength of red color as a negative control (only medium containing 0.2% (v/v) ethanol); ++: half strength of the positive control; +++: same strength of red color as a positive control (indomethacin); details: MC3T3-E1, 20 mM each compound (so in the source), eight days, alizarin red-S red color judgement
Text: Following Experiment 1 which investigates differentiating pre-osteoblastic cells into osteoblastic cells, some of organic compounds were investigated whether they actually enhance calcium deposition or not. Indomethacin (commercialized by Funakoshi, Co., Ltd., Tokyo, Japan) (positive control), kaempferol (commercialized by Funakoshi, Co., Ltd., Tokyo, Japan), hesperetin (commercialized by Funakoshi, Co., Ltd., Tokyo, Japan), gallic acid (commercialized by Nacalai Tesque, Kyoto, Japan), and coffeic acid (commercialized by Wako Pure Chemical Industries, Osaka, Japan) were selected as organic compounds. Mouse MC3T3-E1 cells were treated with 20 mM each above compound dissolved in 1 ml of α-MEM medium supplemented with 10% (v/v) fetal calf serum and containing 10 mM β-glycerophosphate. Since final ethanol concentration in the medium is 0.2% (v/v), α-MEM medium containing 0.2% (v/v) ethanol was prepared as a negative control. The cells were inoculated for eight days as changing the medium therewith to fresh medium with or without each sample per three days. The cells were applied to measure calcium deposition therein by usual alizarin red-S staining method. Briefly to the cells washed with 1 ml of Dulbecco phosphate buffer saline twice after removing the medium were added 1 ml of 50 (v/v) % ethanol aqueous solution and incubated for 10 minutes. After removing the 50 (v/v) % ethanol aqueous solution, the cells were incubated with 1 ml of distilled water for 10 minutes. After removing the water, the cells were applied with 1 ml of 1% (w/v) alizarin red-S solution, incubated for 10 minutes, and washed with 1 ml of distilled water for three times after removing alizarin red-S solution. Then, the calcium deposition amount was measured in a manner of judging red color on the plate bottom since deposited calcium was stained by the above treatment. The judgement criterion “+” means same strength of red color as a negative control (only medium containing 0.2% (v/v) ethanol), “+++” means same strength of red color as a positive control (indomethacin), and “++” means half strength of the positive control.

[3] = test system: mouse pre-osteoblastic cell MC3T3-E1; assay: Calcium deposition amount by Calcium C Test Wako; details: Mus musculus, MC3T3-E1; flavonoid comparison, Calcium C Test Wako, relative to 0.2% (v/v) ethanol negative control
Text: Other flavonoid compounds than kaempferol or hesperetin were investigated where they have the same effect or not. Flavone (commercialized by Kanto Kagaku, Tokyo, Japan), apigenin (commercialized by Funakoshi, Co., Ltd., Tokyo, Japan), flavonol (commercialized by Tokyo Kasei Kogyo, Co., Ltd., Tokyo, Japan), quercetin (commercialized by Kanto Kagaku, Tokyo, Japan), kaempferol (commercialized by Funakoshi, Co., Ltd., Tokyo, Japan), rutin (commercialized by Kanto Kagaku, Tokyo, Japan), flavanone (commercialized by Kanto Kagaku, Tokyo, Japan), naringenin (commercialized by Ardrich Corporation), hesperetin (commercialized by Funakoshi, Co., Ltd., Tokyo, Japan), hesperidin (commercialized by Kanto Kagaku, Tokyo, Japan), chalcone (commercialized by Merk Corporation), fuloretin (commercialized by Sigma Corporation), catechin (commercialized by Sigma Corporation), ipriflavone (commercialized by Daito Corporation, Toyama, Japan), taxifolin (commercialized by Funakoshi, Co., Ltd., Tokyo, Japan), sulfuretin (commercialized by Funakoshi, Co., Ltd.; Tokyo, Japan), or cyanidin (commercialized by Funakoshi, Co., Ltd., Tokyo, Japan) was selected as test samples. Alkaline phosphatase activity was measured by the method of Experiment 1. Calcium deposition was measured by usual method using “Calcium C Test Wako” (commercialized by Wako Pure Chemical Industries, Osaka, Japan), briefly, cultured cells were washed with 1 ml of Dulbecco phosphate buffer saline three times after removing the medium. To the resultant was added 0.5 ml of 2N hydrochloric acid to resolve deposited calcium. To 5 μl of the resultant solution were added 0.5 ml of 0.88M monoethanolamine buffer (pH11) and 0.05 ml of 0.63 mM o-cresolphthalein complexone solution (binding to calcium ion to form chelate complex) containing 69 mM 8-quinolinol and mixed. Calcium amount per one hole of the plate was calculated by measuring absorbance 570 nm of the resultants and standardizing with a standard calcium solution. The judgement of alkaline phosphatase activity or calcium deposition amount of each sample was to calculate the relative activity or the relative calcium deposition amount to the negative control (only medium containing 0.2% (v/v) ethanol) and to compare each other.
The enhancement of calcium deposition between kaempferol and ipripfavone were compared. Test samples and their adding manner were same as Experiment 4. Calcium deposition amount was measured by usual method using “Calcium C Test Wako” (commercialized by Wako Pure Chemical Industries, Osaka, Japan); briefly, cultured cells were washed with 1 ml of Dulbecco phosphate buffer saline three times after removing the medium. To the resultant was added 0.5 ml of 2N hydrochloric acid to resolve deposited calcium. To 5 μl of the resolving solution were added 0.5 ml of 0.88M monoethanolamine buffer (pH11) and 0.05 ml of 0.63 mM o-cresolphthalein complexone solution (binding to calcium ion to form chelate complex) containing 69 mM 8-quinolinol and mixed, Calcium amount per one hole of the plate was calculated by measuring absorbance 570 nm of the resultants and standardizing with a standard calcium solution.
Kaempferol or hesperetin in combination with ipriflavone, or a kind of isoflavones, was investigated whether to enhance calcium deposition or not. Methods for preparing samples and culturing the cells were the same method described in Experiment 1 except culturing the cells for five days, Method for measuring calcium was the same method described in Experiment 3 and 5. Final ethanol concentration of the medium containing each sample was adjusted as same concentration.

[4] = 192 h, MC3T3-E1, 20 mM each compound (so in the source), eight days, relative to 0.2% (v/v) ethanol negative control

Row | Structure (SMILES) | activity at 20 µM [1, 4] | Calcium Deposition Amount [2] | Relative Alkaline Phosphatase Activity (%) ([1]; MC3T3-E1, 20 mM each compound (so in the source), eight days, relative to 0.2% (v/v) ethanol negative control) | activity at 20 µM ([1]; MC3T3-E1, flavonoid comparison, method of Experiment 1, relative to 0.2% (v/v) ethanol negative control) | activity at 20 µM [3]
1 | COc1ccc2c(c1)c(CC(=O)O)c(C)n2C(=O)c1ccc(Cl)cc1 [Indomethacin, indomethacin, reference compound] | 142% | +++ | – | – | –
2 | O=C(O)/C=C/c1ccc(O)c(O)c1 [Coffeic Acid, coffeic acid] | – | + | 97% | – | –
3 | O=C(O)c1cc(O)c(O)c(O)c1 [Gallic Acid, gallic acid] | 79% | + | – | – | –
4 | O=c1c(O)c(-c2ccc(O)cc2)oc2cc(O)cc(O)c12 [Kaempferol] | 162% | +++ | – | 162% | 305%
